# Measurements reported in patent US20070027150A1 (priority 2005, published 2007).
# Molecular target: His-tagged N-terminal ATP binding domain (amino acid residues 9-236) of HSP90α (Homo sapiens, UniProt P07900)
# Assay: HSP90 inhibitor binding potency: TRF competition binding assay
# Settings: Table I; read-out: Hsp90 IC50 Range
# In short: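 His-tagged HSP90α N-domain (residues 9-236) incubated 2 h at room temperature with biotinylated radicicol and increasing compound in 50 mM HEPES, 6 mM MgCl2, 20 mM KCl, 0.1% BSA. Bound tracer captured on streptavidin plates, detected with europium anti-His antibody by time-resolved fluorescence; IC50 derived.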
row,IC50,Compound
1,> 10000 nM,"Cc1nc(N)nc2c1C(=O)CC(c1cccc(-c3ccncc3)c1)C2 (stereo not shown) [Compound 30, 2-amino-4-methyl-7-(3-pyridin-4-ylphenyl)-7,8-dihydroquinazolin-5(6H)-one]"
2,< 1000 nM,"Cc1cnc(Oc2ccccc2C2CC(=O)c3c(C)nc(N)nc3C2)s1 (stereo not shown) [Compound 21, 2-amino-4-methyl-7-[2-(5-methyl-thiazol-2-yloxy)-phenyl]-7,8-dihydro-6H-quinazolin-5-one]"
3,> 10000 nM,"Cc1nc(N)nc2c1C(=O)CC(c1c(O)cccc1Cl)C2 (stereo not shown) [Compound 168, 2-Amino-7-(2-chloro-6-hydroxy-phenyl)-4-methyl-7,8-dihydro-6H-quinazolin-5-one]"
4,< 1000 nM,"Cc1nc(N)nc2c1C(=O)CC(c1ccccc1-c1ccc(F)cc1F)C2 (stereo not shown) [Compound 84, 2-amino-7-(2′,4′-difluoro-1,1′-biphenyl-2-yl)-4-methyl-7,8-dihydroquinazolin-5(6H)-one]"
5,1000 to 10000 nM,"COc1ccc(-c2ccccc2C2CC(=O)c3c(C)nc(N)nc3C2)c(OC)c1 (stereo not shown) [Compound 107, 2-amino-7-(2′,4′-dimethoxy-1,1′-biphenyl-2-yl)-4-methyl-7,8-dihydroquinazolin-5(6H)-one]"
6,< 1000 nM,"Cc1nc(N)nc2c1C(=O)CC(c1cnccc1Oc1ccccc1)C2 (stereo not shown) [Compound 24, 2-Amino-4-methyl-7-(4-phenoxy-pyridin-3-yl)-7,8-dihydro-6H-quinazolin-5-one]"
7,1000 to 10000 nM,"Cc1nc(N)nc2c1C(=O)CC(c1c(-c3cccnc3F)cnn1C)C2 (stereo not shown) [Compound 64, 2-amino-7-[4-(2-fluoro-pyridin-3-yl)-2-methyl-2H-pyrazol-3-yl]-4-methyl-7,8-dihydro-6H-quinazolin-5-one]"
8,< 1000 nM,"Cc1nc(N)nc2c1C(=O)CC(c1ccccc1OC1CCCCC1)C2 (stereo not shown) [Compound 17, 2-amino-7-[2-(cyclohexyloxy)phenyl]-4-methyl-7,8-dihydroquinazolin-5(6H)-one]"
9,< 1000 nM,"Cc1nc(N)nc2c1C(=O)CC(c1ccc(Cl)cc1)C2 (stereo not shown) [Compound 3, 2-amino-7-(4-chlorophenyl)-4-methyl-7,8-dihydroquinazolin-5(6H)-one]"
10,< 1000 nM,"Cc1nc(N)nc2c1C(=O)CC(c1ccccc1-c1c(F)cccc1F)C2 (stereo not shown) [Compound 85, 2-amino-7-(2′,6′-difluoro-1,1′-biphenyl-2-yl)-4-methyl-7,8-dihydroquinazolin-5(6H)-one]"
11,< 1000 nM,"COc1ccnc(-c2ccccc2C2CC(=O)c3c(C)nc(N)nc3C2)c1 (stereo not shown) [Compound 125, 2-amino-7-[2-(4-methoxy-pyridin-2-yl)-phenyl]-4-methyl-7,8-dihydro-6H-quinazolin-5-one]"
12,< 1000 nM,"Cc1nc(N)nc2c1C(=O)CC(c1c(OCCN3CCN(C)CC3)cccc1-c1cccnc1F)C2 (stereo not shown) [Compound 158, 2-amino-7-{2-(2-fluoro-pyridin-3-yl)-6-[2-(4-methyl-piperazin-1-yl)-ethoxy]-phenyl}-4-methyl-7,8-dihydro-6H-quinazolin-5-one]"
13,> 10000 nM,"Cc1nc(N)nc2c1C(=O)CC(c1ccccc1-c1cccc(N(C)C)c1)C2 (stereo not shown) [Compound 93, 2-amino-7-[3′-(dimethylamino)-1,1′-biphenyl-2-yl]-4-methyl-7,8-dihydroquinazolin-5(6H)-one]"
14,< 1000 nM,"Cc1nc(N)nc2c1C(=O)CC(c1ccccc1-c1nccs1)C2 (stereo not shown) [Compound 35, 2-amino-4-methyl-7-[2-(1,3-thiazol-2-yl)phenyl]-7,8-dihydroquinazolin-5(6H)-one]"
15,> 10000 nM,"Cc1nc(N)nc2c1C(=O)CC(c1cccc(-c3cccnc3)c1)C2 (stereo not shown) [Compound 29, 2-amino-4-methyl-7-(3-pyridin-3-ylphenyl)-7,8-dihydroquinazolin-5(6H)-one]"
16,1000 to 10000 nM,"COc1cccc(Cl)c1C1CC(=O)c2c(C)nc(N)nc2C1 (stereo not shown) [Compound 5, 2-amino-7-(2-chloro-6-methoxy-phenyl)-4-methyl-7,8-dihydro-6H-quinazolin-5-one]"
17,< 1000 nM,"Cc1nc(N)nc2c1C(=O)CC(c1ccccc1Nc1ccccc1)C2 (stereo not shown) [Compound 164, 2-amino-4-methyl-7-(2-phenylamino-phenyl)-7,8-dihydro-6H-quinazolin-5-one]"
18,< 1000 nM,"COc1cccc(-c2ccccc2CO)c1C1CC(=O)c2c(C)nc(N)nc2C1 (stereo not shown) [Compound 106, 2-amino-7-[2′-(hydroxymethyl)-3-methoxy-1,1′-biphenyl-2-yl]-4-methyl-7,8-dihydroquinazolin-5(6H)-one]"
19,1000 to 10000 nM,"Cc1nc(N)nc2c1C(=O)CC(c1cccnc1-c1cnccn1)C2 (stereo not shown) [Compound 34, 2-amino-4-methyl-7-(2-pyrazin-2-ylpyridin-3-yl)-7,8-dihydroquinazolin-5(6H)-one]"
20,< 1000 nM,"Cc1nc(N)nc2c1C(=O)CC(c1ccccc1-c1ccc(F)nc1)C2 (stereo not shown) [Compound 56, 2-amino-7-[2-(6-fluoropyridin-3-yl)phenyl]-4-methyl-7,8-dihydroquinazolin-5(6H)-one]"
21,> 10000 nM,"COc1cccc(C2CCCCC2)c1C1CC(=O)c2c(C)nc(N)nc2C1 (stereo not shown) [Compound 20, 2-amino-7-(2-cyclohexyl-6-methoxyphenyl)-4-methyl-7,8-dihydroquinazolin-5(6H)-one]"
22,< 1000 nM,"COc1ncccc1-c1cc(F)ccc1C1CC(=O)c2c(C)nc(N)nc2C1 (stereo not shown) [Compound 99, 2-amino-7-[4-fluoro-2-(2-methoxy-pyridin-3-yl)-phenyl]-4-methyl-7,8-dihydro-6H-quinazolin-5-one]"
23,1000 to 10000 nM,"Cc1nc(N)nc2c1C(=O)CC(c1ccccc1Oc1ccc(F)cc1)C2 (stereo not shown) [Compound 139, 2-amino-7-[2-(4-fluorophenoxy)phenyl]-4-methyl-7,8-dihydroquinazolin-5(6H)-one]"

# Same assay, conditions: Table II; read-out: Hsp90 IC50 Range
row,IC50,Compound
1,1000 to 10000 nM,"COc1nc(-c2cc(F)ccc2[C@H]2CC(=O)c3c(C)nc(N)nc3C2)ncc1F [Compound 229, (R)-2-amino-7-[4-fluoro-2-(5-fluoro-4-methoxy-pyrimidin-2-yl)-phenyl]-4-methyl-7,8-dihydro-6H-quinazolin-5-one]"
2,< 1000 nM,"Cc1nc(N)nc2c1C(=O)CC(c1ccc(F)cc1-c1nccnc1F)C2 (stereo not shown) [Compound 231, 2-amino-7-[4-fluoro-2-(3-fluoro-pyrazin-2-yl)-phenyl]-4-methyl-7,8-dihydro-6H-quinazolin-5-one]"
3,< 1000 nM,"Cc1nc(N)nc2c1C(=O)CC(c1ccc(F)cc1-c1cccc(C(F)(F)F)n1)C2 (stereo not shown) [Compound 279, 2-amino-7-[4-fluoro-2-(6-trifluoromethyl-pyridin-2-yl)-phenyl]-4-methyl-7,8-dihydro-6H-quinazolin-5-one]"
4,> 10000 nM,"Nc1nc(O)c2c(n1)CC(c1ccccc1)CC2=O (stereo not shown) [Compound 311, 2-amino-4-hydroxy-7-phenyl-7,8-dihydro-6H-quinazolin-5-one]"
5,< 1000 nM,"Cc1nc(N)nc2c1C(=O)CC(c1ccc(Cl)cc1-c1cncnc1)C2 (stereo not shown) [Compound 250, 2-amino-7-(4-chloro-2-pyrimidin-5-yl-phenyl)-4-methyl-7,8-dihydro-6H-quinazolin-5-one]"
6,< 1000 nM,"COc1cccc(-n2ccnc2C2CC(=O)c3c(C)nc(N)nc3C2)n1 (stereo not shown) [Compound 193, 2-amino-7-[1-(6-methoxy-pyridin-2-yl)-1H-imidazol-2-yl]-4-methyl-7,8-dihydro-6H-quinazolin-5-one]"
7,1000 to 10000 nM,"Cc1nc(N)nc2c1C(=O)CC(c1ccccc1S(=O)(=O)N(C)C(C)C)C2 (stereo not shown) [Compound 185, 2-(2-amino-4-methyl-5-oxo-5,6,7,8-tetrahydro-quinazolin-7-yl)-N-isopropyl-N-methyl-benzenesulfonamide]"
8,> 10000 nM,"COc1nccc(-c2cc(F)ccc2C2CC(=O)c3c(C)nc(N)nc3C2)n1 (stereo not shown) [Compound 258, 2-amino-7-[4-fluoro-2-(2-methoxy-pyrimidin-4-yl)-phenyl]-4-methyl-7,8-dihydro-6H-quinazolin-5-one]"
9,1000 to 10000 nM,"Cc1ccc(-n2ccnc2C2CC(=O)c3c(C)nc(N)nc3C2)c(F)c1 (stereo not shown) [Compound 329, 2-amino-7-[1-(2-fluoro-4-methyl-phenyl)-1H-imidazol-2-yl]-4-methyl-7,8-dihydro-6H-quinazolin-5-one]"
10,< 1000 nM,"Cc1nc(N)nc2c1C(=O)CC(c1ccc(F)cc1OCC1CC1)C2 (stereo not shown) [Compound 179, 2-amino-7-(2-cyclopropylmethoxy-4-fluoro-phenyl)-4-methyl-7,8-dihydro-6H-quinazolin-5-one]"
11,> 10000 nM,"Cc1nc(N)nc2c1C(=O)C(NC(=O)c1ccccc1)C(c1ccccc1)C2 (stereo not shown) [Compound 241, N-(2-amino-4-methyl-5-oxo-7-phenyl-5,6,7,8-tetrahydro-quinazolin-6-yl)-benzamide]"
12,> 10000 nM,"CCc1nc(N)nc2c1C(=O)CC(c1ccc(F)cc1Br)C2 (stereo not shown) [Compound 315, 2-amino-7-(2-bromo-4-fluoro-phenyl)-4-ethyl-7,8-dihydro-6H-quinazolin-5-one]"
13,1000 to 10000 nM,"Cc1nc(N)nc2c1C(=O)CC(c1ccc(F)cc1OCc1ccccc1)C2 (stereo not shown) [Compound 265, 2-amino-7-(2-benzyloxy-4-fluoro-phenyl)-4-methyl-7,8-dihydro-6H-quinazolin-5-one]"
14,< 1000 nM,"Cc1ccc(F)c(-c2scnc2C2CC(=O)c3c(C)nc(N)nc3C2)c1 (stereo not shown) [Compound 293, 2-amino-7-[5-(2-fluoro-5-methyl-phenyl)-thiazol-4-yl]-4-methyl-7,8-dihydro-6H-quinazolin-5-one]"
15,1000 to 10000 nM,"COc1cncc(-c2cccc(F)c2C2CC(=O)c3c(C)nc(N)nc3C2)n1 (stereo not shown) [Compound 240, 2-amino-7-[2-fluoro-6-(6-methoxy-pyrazin-2-yl)-phenyl]-4-methyl-7,8-dihydro-6H-quinazolin-5-one]"
16,1000 to 10000 nM,"COc1cccc(Cc2nc(N)nc3c2C(=O)CC(c2ccccc2)C3)c1 (stereo not shown) [Compound 306, 2-amino-4-(3-methoxy-benzyl)-7-phenyl-7,8-dihydro-6H-quinazolin-5-one]"
17,< 1000 nM,"CCc1nc(N)nc2c1C(=O)CC(c1ccc(F)cc1-c1cccc(OC)n1)C2 (stereo not shown) [Compound 316, 2-amino-4-ethyl-7-[4-fluoro-2-(6-methoxy-pyridin-2-yl)-phenyl]-7,8-dihydro-6H-quinazolin-5-one]"
